Here are results for eleven molecules from PubChem BioAssay (NCI).

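Compound exposure: 48 hours, 5 concentrations, 96-well plates. TGI: total growth inhibition.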

Holding throughout (experiment): inhibition of tumour cell growth, NCI panel, 48 h
For assay [1], the system named is SR leukemia.
Assay [2] concerns 786-0 renal.
The subject of assay [3] is OVCAR-4 ovarian.
Assay [4] deals with SK-MEL-2 melanoma.
Assay [5] concerns MALME-3M melanoma.
Assay [6] has as its system OVCAR-8 ovarian.
Assay [7] deals with UACC-62 melanoma.
Assay [8] deals with HOP-62 NSCLC.
Assay [9] concerns CAKI-1 renal.
The test system of assay [10] is UACC-257 melanoma.
The subject of assay [11] is IGROV1 ovarian.
Assay [12] deals with A498 renal.
Assay [13] relates to RPMI-8226 leukemia.
Assay [14] deals with RXF 393 renal.
Assay [15] concerns MCF7 breast.
For assay [16], the system named is HS 578T breast.
Assay [17] has as its system T-47D breast.

As for `C/C(CN1C(=O)c2ccccc2C1=O)=N\NS(=O)(=O)c1ccc(Cl)cc1`, the TGI in assay [1], in [2], in assay [3], in [4], in assay [5] and in [6] was more than 100 µM each time. Also, the TGI in assay [7], in assay [8], in assay [9], in assay [10], in assay [11] and in assay [12] was more than 100 µM in each case. For the same molecule, the TGI in assay [13] is more than 100 µM.

As for `COCCOCOC(CCCCO)c1cc(C)c(O[Si](C)(C)C(C)(C)C)c(C)c1` (stereo unspecified), the TGI in assay [2] turned out to be 24.4 µM; in assay [4] it was 21.9 µM; in assay [5], 13.3 µM; in assay [6], 18.7 µM; in assay [7], 25.4 µM; in [8], 23 µM. Besides, the TGI came out at 15.7 µM in [10]; 10.5 µM in assay [14]; 26.7 µM in assay [11]; 26.9 µM in [12]; 11.6 µM in [13].

Turning to `CC(=O)OCCOCNC(=S)N/N=C/c1ccc([N+](=O)[O-])o1`, the TGI in assay [2], in assay [3], in assay [4], in [5], in [6] and in [7] was more than 100 µM each time. The TGI in assay [8], in [10], in assay [14], in assay [11] and in assay [12] was more than 100 µM throughout.

For the molecule `COc1cc(-c2cccs2)sc1-c1cccs1`, the TGI in [1] is 61.8 µM; in assay [2], more than 100 µM; in assay [3], more than 100 µM; in [4], more than 100 µM; in assay [5], more than 100 µM; in [6] it was more than 100 µM. The TGI is more than 100 µM in assay [7]; more than 100 µM in [10]; 54.1 µM in assay [14]; more than 100 µM in assay [11]; more than 100 µM in [13].

For `CCOC(=O)/C(=C/c1ccc(OC)cc1)N(CC)CC`, the TGI in assay [1], in assay [2], in assay [3], in [4], in assay [5] and in [6] was more than 100 µM throughout. Further, the TGI in assay [7], in assay [8], in assay [9], in assay [10], in assay [11] and in [12] was more than 100 µM throughout. The molecule also had a TGI in [13] of more than 100 µM.

As to `CN(C)CC1CCC/C1=N/OC(=O)c1ccccc1` (stereo unspecified), the TGI in assay [1], in assay [2], in assay [3], in assay [4], in assay [6] and in assay [7] was more than 100 µM in each case. The TGI in [8], in [9], in [10], in assay [14], in assay [11] and in assay [12] was more than 100 µM in each case. Also, the TGI in assay [13] is more than 100 µM.

`O=S(=O)(O)c1cc(N=Nc2c(O)ccc3ccccc23)cc2c(S(=O)(=O)O)cccc12`: the TGI in assay [1], in assay [2], in assay [3], in assay [4], in [5] and in [6] was more than 100 µM each time. The TGI in assay [7], in assay [8], in [15], in assay [9], in assay [10] and in [14] was more than 100 µM throughout. Further, the TGI in [16], in assay [11], in assay [12] and in assay [13] was more than 100 µM in each case.

For `O=C(Nc1nc(=S)[nH][nH]1)C(=O)C(C(=O)c1ccc2ccccc2c1)C1OC(=O)c2ccccc21` (stereo unspecified), the TGI is 49.5 µM in [2]; 58.2 µM in assay [3]; 53.2 µM in [4]; more than 100 µM in assay [5]; 94.4 µM in assay [6]; 30.2 µM in assay [7]. For the same molecule, the TGI in [8] was 45.4 µM; in assay [9], more than 100 µM; in [10], 76.5 µM; in assay [14] it was 26.8 µM; in assay [11], 53.7 µM; in assay [12], more than 100 µM. Also, in assay [13], the TGI came to 40.2 µM.

In the case of `COc1cc2c(/C=C3/C(=O)Nc4cccc(Cl)c43)c(Cl)[nH]c2cc1C`, the TGI in assay [1] amounted to 2.95 µM; in assay [2], 4.15 µM; in assay [3] it was 3.48 µM; in assay [4] it was 12.3 µM; in assay [17], 5.48 µM; in [6] it was 11.8 µM. In addition, the TGI in assay [7] came out at 4.21 µM; in assay [8], 10.2 µM; in assay [15], 8.35 µM; in assay [9], 7.3 µM; in [10] it was 10.2 µM; in assay [14], 7.41 µM. The TGI was 5.58 µM in [16], 11.8 µM in assay [11], 20.7 µM in [12] and 4.69 µM in assay [13].

Turning to `COc1cc2c(cc1O)[C@H](C)C(c1ccc(OC)c(OC)c1)O2` (stereo partly specified), the TGI in [2] came to 23.8 µM; in assay [3] it was 26.2 µM; in assay [4], 12.8 µM; in assay [5], 22.8 µM; in [6], 35.1 µM; in assay [7], 10.1 µM. The TGI in assay [8] is more than 100 µM; in [9], 15.9 µM; in assay [10], 35.9 µM; in [14], 30.3 µM; in assay [11], 4.36 µM; in [12], more than 100 µM.

On to `S=P1(Oc2ccccc2)NNP2(=NP(N3CC3)(N3CC3)=NP(N3CC3)(N3CC3)=N2)NN1` (stereo unspecified), for which the TGI in assay [2], in [3], in assay [4], in assay [5], in assay [6] and in assay [7] was more than 100 µM each time. The TGI in assay [8], in [9], in assay [10], in [11], in assay [12] and in assay [13] was more than 100 µM each time.
